Experimental data: article PMC5667462, “Benzoylphenyl thiocyanates are new, effective inhibitors of the mycobacterial resuscitation promoting factor B protein” (Annals of Clinical Microbiology and Antimicrobials, 2017)

Each compound was assayed against T1, RpfB (catalytic domain, residues 280-362) (Mycobacterium tuberculosis, UniProt P9WG29) (assay: release of fluorescent fragments from FITC-labelled peptidoglycan). Conditions: read-out: IC50 Rpf-hydrolysis of PG, μM / M. tuberculosis.
Type: biochemical
From the text: release of fluorescent fragments from FITC-labelled peptidoglycan on RpfB (catalytic domain, residues 280-362)

T1 sequence (P9WG29 280-362): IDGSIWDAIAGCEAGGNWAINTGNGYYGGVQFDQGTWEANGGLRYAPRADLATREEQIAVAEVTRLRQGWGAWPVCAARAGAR

| Compound | IC50 |
| --- | --- |
| N#CSc1cccc(C(=O)c2ccccc2)c1 [II, 3-Benzoylphenyl thiocyanate] | 1.7 ± 0.4 µM |
| N#CSc1ccc(C(=O)c2ccccc2)cc1 [III, 4-Benzoylphenyl thiocyanate] | 1.2 ± 0.5 µM |
| N#CSc1ccc(C(=O)c2ccc(SC#N)c([N+](=O)[O-])c2)cc1[N+](=O)[O-] [IV, Bis(4-thiocyano-3-nitrophenyl)methanone] | 5.8 ± 2 µM |
| N#CSc1ccc(C(=O)c2ccc(SC#N)cc2)cc1 [V, Bis(4-thiocyanophenyl)methanone] | 4.3 ± 2.4 µM |
| N#CSc1cccc(C(=O)c2cccc(SC#N)c2)c1 [VI, Bis(3-thiocyanophenyl)methanone] | 3.6 ± 1.2 µM |

Each compound was assayed against T1, RpfB (catalytic domain, residues 280-362) (assay: intrinsic tryptophan fluorescence quenching (Stern-Volmer)). Conditions: 50 mM phosphate buffer, pH 6.0; room temperature; RpfB 25.6 μg/ml; excitation 280 nm.
Type: binding

| Compound | intrinsic tryptophan fluorescence quenching (Stern-Volmer) |
| --- | --- |
| N#CSc1ccc(C(=O)c2ccc(SC#N)c([N+](=O)[O-])c2)cc1[N+](=O)[O-] [IV, Bis(4-thiocyano-3-nitrophenyl)methanone] | confirmed by quenching of Rpf’s autofluorescence by the compound (IV) |
